Measured values published in patent US11559575B2, “Multi-epitopic peptide compounds and vaccines against leishmaniasis” (INSTITUT DE RECHERCHE POUR LE DEVELOPPEMENT, priority 2018, dated 2023).
“Also recorded” adds a separate entry of the source.

What was measured:
Type in all cases: binding, human
[1] = system: HLA supertypes of class I; test: Affinity of epitopes for HLA supertypes of class I; conditions: for Affinity for the HLA supertypes of class I: H2B-1 epitopes; for Affinity for the HLA supertypes of class I / Affinity HLA supertype allele of class I: Table 1; for Affinity for HLA supertypes of class I: LmLRAB (IA, IB, IC) epitopes, Table 2; for Affinity HLA supertype allele of class I: H2B-II core epitopes
Text: HLA molecules are highly polymorphous. This is because there exist more than 2500 HLA proteins of class I (HLA-I) and more than 1000 HLA proteins of class II (HLA-II). However, some of these HLA molecules, close in sequence and in spatial conformation, may have epitopes common to the T cells. The grouping of several thousands of HLA molecules is at the present time described in a little more than 20 or so categories, referred to as “HLA supertypes” having epitopes that are very well preserved for each supertype.

HLA alleles of class I = test: Affinity of epitopes for HLA alleles of class I; conditions: for Affinity for the HLA alleles of class I: H2B-1 epitopes; for Affinity for the HLA alleles of class I / Affinity HLA alleles of class I: Table 1; for Concatenation affinity for HLA allele of class I: LmLRAB (IA, IB, IC) epitopes, Table 2; for Affinity HLA alleles of class I: H2B-II core epitopes
Text: The multiepitopic peptide compounds (24 to 40-mer), having a high affinity with a maximized number of HLA molecules of class I and of class II, such as the affinities for the alleles HLA of class I and HLA of class II of the epitopes in the peptides of the sequences SEQ ID NO: 22, 23, 65, 66, 69, 73, 77, 96, 97, 137, 138, and 157, 185, have a high immunoprevalent potential corresponding to an optimal vaccine coverage, in particular for the populations concerned. The degree of coverage of the peptide compounds of the invention show a very high added value compared with the peptides of the prior art.

HLA alleles of class II = test: Affinity of epitopes for HLA alleles of class II; conditions: Table 1; for Affinity for the HLA alleles of class II: H2B-1 epitopes; for Affinity HLA alleles of class II: H2B-II core epitopes

Sequence	Affinity for the HLA supertypes of class I [1]	Affinity for the HLA alleles of class I (HLA alleles of class I)	other results
MSHRTMKIKA (Leishmania major) [SEQ ID NO: 9]	HLA-A*01/HLA-A*03	HLA-A*30:01	–
MSHRTMKSM (Leishmania major) [SEQ ID NO: 10]	HLA-A*01/HLA-A*03,; also recorded: HLA-B*58,; also recorded: HLA-B*62	HLA-B*57:01,; also recorded: HLA-A*30:01,; also recorded: HLA-B*15:01	–
MSMSHRTM (Leishmania major) [SEQ ID NO: 11]	HLA-B*08	HLA-B*08:01	–
MSMSHRTMK (Leishmania major) [SEQ ID NO: 12]	HLA-A*01/HLA-; also recorded: A*03, HLA-A*03	HLA-A*11:01,; also recorded: HLA-A*31:01,; also recorded: HLA-A*03:01,; also recorded: HLA-A*68:01,; also recorded: HLA-A*30:01,; also recorded: HLA-A*33:01	Affinity for the HLA alleles of class II (HLA alleles of class II): DRB1*03:01,; also recorded: DRB1*09:01,; also recorded: DRB1*11:01
MSMSHRTMKS (Leishmania major) [SEQ ID NO: 13]	HLA-A*03	HLA-A*03:01,; also recorded: HLA-A*11:01	–
NAQMSMMER (Leishmania major) [SEQ ID NO: 14]	HLA-A*03	HLA-A*68:01,; also recorded: HLA-A*33:01,; also recorded: HLA-A*31:01	–
NENNITGGL (MENNITGGL; Leishmania major) [SEQ ID NO: 67]	–	–	Affinity for HLA supertypes of class I [1]: HLA-B*44; Concatenation affinity for HLA allele of class I (HLA alleles of class I): HLA-B*40:02,; also recorded: HLA-B*44:02,; also recorded: HLA-B*44:03; also recorded: HLA-B*18:01,; also recorded: HLA-B*40:01,
NVYVGRSLK (Leishmania major) [SEQ ID NO: 47]	–	–	Affinity HLA supertype allele of class I [1]: HLA-A*03; Affinity HLA alleles of class I (HLA alleles of class I): HLA-A*03:01; Affinity HLA alleles of class II (HLA alleles of class II): HLA-DRB5*01:01
QMSMSHRTM (Leishmania major) [SEQ ID NO: 49]	–	–	Affinity HLA supertype allele of class I [1]: HLA-B*62; Affinity HLA alleles of class I (HLA alleles of class I): HLA-B*15:01; Affinity HLA alleles of class II (HLA alleles of class II): HLA-DRB1*01:01,; also recorded: HLA-DRB4*01:01
RFAQGEHDI (Leishmania major) [SEQ ID NO: 70]	–	–	Affinity for HLA supertypes of class I [1]: HLA-A*24; Concatenation affinity for HLA allele of class I (HLA alleles of class I): HLA-A*2403
RLPENAFVI (Leishmania major) [SEQ ID NO: 71]	–	–	Affinity for HLA supertypes of class I [1]: HLA-A*01,; also recorded: HLA-A*02; Concatenation affinity for HLA allele of class I (HLA alleles of class I): HLA-A*32:01,; also recorded: HLA-A*02:06,; also recorded: HLA-A*02:11,; also recorded: HLA-A*02:12,; also recorded: HLA-A*02:16,; also recorded: HLA-A*02:19
SLKAINAQM (Leishmania major) [SEQ ID NO: 50]	–	–	Affinity HLA supertype allele of class I [1]: HLA-B*62; Affinity HLA alleles of class I (HLA alleles of class I): HLA-B*15:01; Affinity HLA alleles of class II (HLA alleles of class II): HLA-DRB1*04:01,; also recorded: HLA-DRB1*08:02,; also recorded: HLA-DRB1*09:01,; also recorded: HLA-DRB1*11:01,; also recorded: HLA-DRB1*13:02,; also recorded: HLA-DRB4*01:01
SMSHRTMK (Leishmania major) [SEQ ID NO: 15]	HLA-A*03	HLA-A*03:01	–
SMSHRTMKI (Leishmania major) [SEQ ID NO: 16]	HLA-A*02	HLA-A*02:03,; also recorded: HLA-A*32:01,; also recorded: HLA-A*02:01	Affinity for the HLA alleles of class II (HLA alleles of class II): DRB1*07:01,; also recorded: DRB1*13:02
SMSHRTMKIK (Leishmania major) [SEQ ID NO: 17]	HLA-A*01/HLA-; also recorded: A*03, HLA-A*03	HLA-A*03:01,; also recorded: HLA-A*11:01,; also recorded: HLA-A*30:01	–
SMSHRTMKS (Leishmania major) [SEQ ID NO: 18]	HLA-A*02	HLA-A*02:03	–
SSIMVVANK (Leishmania major) [SEQ ID NO: 76]	–	–	Affinity for HLA supertypes of class I [1]: HLA-A*01/HLA-A*03,; Concatenation affinity for HLA allele of class I (HLA alleles of class I): HLA-A*30:01,; also recorded: HLA-A*03:01,; also recorded: HLA-A*11:01,; also recorded: HLA-A*31:01,; also recorded: HLA-A*68:01
TMKSMSHRT (Leishmania major) [SEQ ID NO: 20]	HLA-A*02	HLA-A*02:03	–
TQGSSKAGF (Leishmania major) [SEQ ID NO: 72]	–	–	Affinity for HLA supertypes of class I [1]: HLA-B*27,; also recorded: HLA-B*62; Concatenation affinity for HLA allele of class I (HLA alleles of class I): HLA-B*15:01,; also recorded: HLA-B*15:02
